Measurements reported in US9783532B2, “Molecules having certain pesticidal utilities, and intermediates, compositions, and processes related thereto” (Dow AgroSciences LLC, priority 2013, dated 2017).

Tests used:
[1] = system: Beet Armyworm (Spodoptera exigua) ("BAW"); test: Bioassay on beet armyworm (BAW), 128-well diet tray assay; assay type: in vivo; details: Table ABC (FB), activity rating class, read-out: BAW (Biological Results, Insect species)
Procedure: (§1) Certain molecules disclosed in this document were tested against BAW and CEW using procedures described in the following examples. In the reporting of the results, the “BAW & CL Rating Table” was used (See Table Section). BIOASSAYS ON BAW
Bioassays on BAW were conducted using a 128-well diet tray assay. one to five second instar BAW larvae were placed in each well (3 mL) of the diet tray that had been previously filled with 1 mL of artificial diet to which 50 μg/cm^2 of the test compound (dissolved in 50 μL of 90:10 acetone-water mixture) had been applied (to each of eight wells) and then allowed to dry. Trays were covered with a clear self-adhesive cover and held at 25° C., 14:10 light-dark for five to seven days. Percent mortality was recorded for the larvae in each well; activity in the eight wells was then averaged. The results are indicated in the table entitled “Table ABC: Biological Results” (See Table Section).

[2] = system: Cabbage Looper (Trichoplusia ni) ("CL"); test: Bioassay on cabbage looper (CL), 128-well diet tray assay; assay type: in vivo; details: Table ABC (FB), activity rating class, read-out: CL (Biological Results, Insect species)
Procedure: as §1
Bioassays on CL were conducted using a 128-well diet tray assay. one to five second instar CL larvae were placed in each well (3 mL) of the diet tray that had been previously filled with 1 mL of artificial diet to which 50 μg/cm^2 of the test compound (dissolved in 50 μL of 90:10 acetone-water mixture) had been applied (to each of eight wells) and then allowed to dry. Trays were covered with a clear self-adhesive cover and held at 25° C., 14:10 light-dark for five to seven days. Percent mortality was recorded for the larvae in each well; activity in the eight wells was then averaged. The results are indicated in the table entitled “Table ABC: Biological Results” (See Table Section).

Row | Structure (SMILES) | pest or weed control at 50 µg/cm2 [1] | pest or weed control at 50 µg/cm2 [2]
1 | Cc1ccc(C(C)C)c(N2C(=O)CS/C2=N\C(=O)NC2CCCCC2c2ccc(-c3ncn(-c4ccc(OC(F)(F)F)cc4)n3)cc2)c1 (stereo not shown) [FB15, (Z)-1-(3-(2-isopropyl-5-methylphenyl)-4-oxothiazolidin-2-ylidene)-3-(2-(4-(1-(4-(trifluoromethoxy)phenyl)-1H-1,2,4-triazol-3-yl)phenyl)cyclohexyl)urea] | 50 to 100% | 50 to 100%
2 | Cc1ccccc1NC(=S)NC(=O)NCc1cccc(-c2ncn(-c3ccc(OC(F)(F)F)cc3)n2)c1 [FB18, 1-(o-tolylcarbamothioyl)-3-[[3-[1-[4-(trifluoromethoxy)phenyl]-1H-1,2,4-triazol-3-yl]phenyl]methyl]urea] | 50 to 100% | 50 to 100%
3 | COc1ccc(NC(=S)NC(=O)NCc2cccc(-c3ncn(-c4ccc(OC(F)(F)F)cc4)n3)c2)c(C)c1 [FB19, 1-[(4-methoxy-2-methyl-phenyl)carbamothioyl]-3-[[3-[1-[4-(trifluoromethoxy)phenyl]-1H-1,2,4-triazol-3-yl]phenyl]methyl]urea] | 50 to 100% | 50 to 100%
4 | CCc1ccccc1NC(=S)NC(=O)NCc1cccc(-c2ncn(-c3ccc(OC(F)(F)F)cc3)n2)c1 [FB20, 1-[(2-ethylphenyl)carbamothioyl]-3-[[3-[1-[4-(trifluoromethoxy)phenyl]-1H-1,2,4-triazol-3-yl]phenyl]methyl]urea] | 50 to 100% | 50 to 100%
5 | CCc1cccc(C)c1NC(=S)NC(=O)NCc1cccc(-c2ncn(-c3ccc(OC(F)(F)F)cc3)n2)c1 [FB21, 1-[(2-ethyl-6-methyl-phenyl)carbamothioyl]-3-[[3-[1-[4-(trifluoromethoxy)phenyl]-1H-1,2,4-triazol-3-yl]phenyl]methyl]urea] | 50 to 100% | 50 to 100%
6 | CC(C)c1ccccc1NC(=S)NC(=O)NCc1cccc(-c2ncn(-c3ccc(OC(F)(F)F)cc3)n2)c1 [FB22, 1-[(2-isopropylphenyl)carbamothioyl]-3-[[3-[1-[4-(trifluoromethoxy)phenyl]-1H-1,2,4-triazol-3-yl]phenyl]methyl]urea] | 50 to 100% | 50 to 100%
7 | Cc1ccc(NC(=S)NC(=O)NCc2cccc(-c3ncn(-c4ccc(OC(F)(F)F)cc4)n3)c2)c(C(C)C)c1 [FB23, 1-[(2-isopropyl-4-methyl-phenyl)carbamothioyl]-3-[[3-[1-[4-(trifluoromethoxy)phenyl]-1H-1,2,4-triazol-3-yl]phenyl]methyl]urea] | 50 to 100% | 50 to 100%
8 | CC(C)c1cc(F)ccc1NC(=S)NC(=O)NCc1cccc(-c2ncn(-c3ccc(OC(F)(F)F)cc3)n2)c1 [FB24, 1-[(4-fluoro-2-isopropyl-phenyl)carbamothioyl]-3-[[3-[1-[4-(trifluoromethoxy)phenyl]-1H-1,2,4-triazol-3-yl]phenyl]methyl]urea] | 50 to 100% | 50 to 100%
9 | Cc1ccc(C(C)C)c(NC(=S)NC(=O)NCc2cccc(-c3ncn(-c4ccc(OC(F)(F)F)cc4)n3)c2)c1 [FB25, 1-[(2-isopropyl-5-methyl-phenyl)carbamothioyl]-3-[[3-[1-[4-(trifluoromethoxy)phenyl]-1H-1,2,4-triazol-3-yl]phenyl]methyl]urea] | 50 to 100% | 50 to 100%
10 | CC(C)c1ccc(Cl)cc1NC(=S)NC(=O)NCc1cccc(-c2ncn(-c3ccc(OC(F)(F)F)cc3)n2)c1 [FB26, 1-[(5-chloro-2-isopropyl-phenyl)carbamothioyl]-3-[[3-[1-[4-(trifluoromethoxy)phenyl]-1H-1,2,4-triazol-3-yl]phenyl]methyl]urea] | 50 to 100% | 50 to 100%
11 | Cc1ccccc1N1C(=O)CS/C1=N\C(=O)NCc1cccc(-c2ncn(-c3ccc(OC(F)(F)F)cc3)n2)c1 [FB27, (Z)-1-(4-oxo-3-(o-tolyl)thiazolidin-2-ylidene)-3-(3-(1-(4-(trifluoromethoxy)phenyl)-1H-1,2,4-triazol-3-yl)benzyl)urea] | 50 to 100% | 50 to 100%
12 | COc1ccc(N2C(=O)CS/C2=N\C(=O)NCc2cccc(-c3ncn(-c4ccc(OC(F)(F)F)cc4)n3)c2)c(C)c1 [FB28, (Z)-1-(3-(4-methoxy-2-methylphenyl)-4-oxothiazolidin-2-ylidene)-3-(3-(1-(4-(trifluoromethoxy)phenyl)-1H-1,2,4-triazol-3-yl)benzyl)urea] | 50 to 100% | 50 to 100%
13 | CCc1ccccc1N1C(=O)CS/C1=N\C(=O)NCc1cccc(-c2ncn(-c3ccc(OC(F)(F)F)cc3)n2)c1 [FB29, (Z)-1-(3-(2-ethylphenyl)-4-oxothiazolidin-2-ylidene)-3-(3-(1-(4-(trifluoromethoxy)phenyl)-1H-1,2,4-triazol-3-yl)benzyl)urea] | 50 to 100% | 50 to 100%
14 | CCc1cccc(C)c1N1C(=O)CS/C1=N\C(=O)NCc1cccc(-c2ncn(-c3ccc(OC(F)(F)F)cc3)n2)c1 [FB30, (Z)-1-(3-(2-ethyl-6-methylphenyl)-4-oxothiazolidin-2-ylidene)-3-(3-(1-(4-(trifluoromethoxy)phenyl)-1H-1,2,4-triazol-3-yl)benzyl)urea] | 50 to 100% | 50 to 100%
15 | CC(C)c1ccccc1N1C(=O)CS/C1=N\C(=O)NCc1cccc(-c2ncn(-c3ccc(OC(F)(F)F)cc3)n2)c1 [FB31, (Z)-1-(3-(2-isopropylphenyl)-4-oxothiazolidin-2-ylidene)-3-(3-(1-(4-(trifluoromethoxy)phenyl)-1H-1,2,4-triazol-3-yl)benzyl)urea] | 50 to 100% | 50 to 100%
16 | Cc1ccc(N2C(=O)CS/C2=N\C(=O)NCc2cccc(-c3ncn(-c4ccc(OC(F)(F)F)cc4)n3)c2)c(C(C)C)c1 [FB32, (Z)-1-(3-(2-isopropyl-4-methylphenyl)-4-oxothiazolidin-2-ylidene)-3-(3-(1-(4-(trifluoromethoxy)phenyl)-1H-1,2,4-triazol-3-yl)benzyl)urea] | 50 to 100% | 50 to 100%
17 | CC(C)c1cc(F)ccc1N1C(=O)CS/C1=N\C(=O)NCc1cccc(-c2ncn(-c3ccc(OC(F)(F)F)cc3)n2)c1 [FB33, (Z)-1-(3-(4-fluoro-2-isopropylphenyl)-4-oxothiazolidin-2-ylidene)-3-(3-(1-(4-(trifluoromethoxy)phenyl)-1H-1,2,4-triazol-3-yl)benzyl)urea] | 50 to 100% | 50 to 100%
18 | CC(C)c1ccc(Cl)cc1N1C(=O)CS/C1=N\C(=O)NCc1cccc(-c2ncn(-c3ccc(OC(F)(F)F)cc3)n2)c1 [FB35, (Z)-1-(3-(5-chloro-2-isopropylphenyl)-4-oxothiazolidin-2-ylidene)-3-(3-(1-(4-(trifluoromethoxy)phenyl)-1H-1,2,4-triazol-3-yl)benzyl)urea] | 50 to 100% | 50 to 100%
19 | COc1ccc(NC(=S)NC(=O)NCCCCc2cccc(-c3ncn(-c4ccc(OC(F)(F)F)cc4)n3)c2)c(C)c1 [FB36, 1-[(4-methoxy-2-methyl-phenyl)carbamothioyl]-3-[4-[3-[1-[4-(trifluoromethoxy)phenyl]-1H-1,2,4-triazol-3-yl]phenyl]butyl]urea] | 0 to 50% | 50 to 100%
20 | CC(C)c1ccc(Cl)cc1NC(=S)NC(=O)NCCCCc1cccc(-c2ncn(-c3ccc(OC(F)(F)F)cc3)n2)c1 [FB37, 1-[(5-chloro-2-isopropyl-phenyl)carbamothioyl]-3-[4-[3-[1-[4-(trifluoromethoxy)phenyl]-1H-1,2,4-triazol-3-yl]phenyl]butyl]urea] | 0 to 50% | 0 to 50%
21 | COc1ccc(N2C(=O)CS/C2=N\C(=O)NCCCCc2cccc(-c3ncn(-c4ccc(OC(F)(F)F)cc4)n3)c2)c(C)c1 [FB38, (Z)-1-(3-(4-methoxy-2-methylphenyl)-4-oxothiazolidin-2-ylidene)-3-(4-(3-(1-(4-(trifluoromethoxy)phenyl)-1H-1,2,4-triazol-3-yl)phenyl)butyl)urea] | 0 to 50% | 50 to 100%
22 | CC(C)c1ccc(Cl)cc1N1C(=O)CS/C1=N\C(=O)NCCCCc1cccc(-c2ncn(-c3ccc(OC(F)(F)F)cc3)n2)c1 [FB39, (Z)-1-(3-(5-chloro-2-isopropylphenyl)-4-oxothiazolidin-2-ylidene)-3-(4-(3-(1-(4-(trifluoromethoxy)phenyl)-1H-1,2,4-triazol-3-yl)phenyl)butyl)urea] | 50 to 100% | 50 to 100%
23 | Cc1ccc(C(C)C)c(N2C(=O)CS/C2=N\C(=O)N[C@H](C)Cc2ccc(-c3ncn(-c4ccc(OC(F)(F)F)cc4)n3)cc2)c1 [FB45, (R,Z)-1-(3-(2-isopropyl-5-methylphenyl)-4-oxothiazolidin-2-ylidene)-3-(1-(4-(1-(4-(trifluoromethoxy)phenyl)-1H-1,2,4-triazol-3-yl)phenyl)propan-2-yl)urea] | 50 to 100% | 50 to 100%
